Measured values: PMC3510080, “Identification of Compounds with Anti-Proliferative Activity against Trypanosoma brucei brucei Strain 427 by a Whole Cell Viability Based HTS Campaign” (PLoS Neglected Tropical Diseases, 2012)
In brackets after ≈: the same amount, converted by molar mass. Several values for one entry are separate records, joined by “and”; a condition that tells them apart may be missing. Equal values may be shown once. Read-outs that look alike come from different tables or passages of the source.

Legend:
[1] = system: T.b. rhodesiense STIB900; test: T. b. rhodesiense STIB900 assay (resazurin); SI versus L6 cells; type: cell-based, Trypanosoma brucei rhodesiense; settings: for IC50: T.b. rhodesiense STIB900, 70 h, read-out: Compound activity T.R (IC50); for Selectivity Index T.R: relative to L6 cells
Protocol: (§1) L6 rat skeletal myoblasts, [29] were purchased from the American Type Culture Collection (ATCC, Rockville, MD, USA; ATCC number CRL 1458). This cell line was used for cytotoxicity testing to calculate an SI against T.b. rhodesiense and screened alongside the T.b. rhodesiense, P. falciparum, T. cruzi and L. donovani assays. L6 were also the host cells for the T. cruzi assay. Assays were performed in 96-well microtiter plates, each well containing 100 µl of RPMI 1640 medium supplemented with 1% L-glutamine (200 mM), 10% FCS, and 4000 L6 cells. Serial drug dilutions of eleven 3-fold dilution steps covering a range from 100 to 0.002 µg/ml were prepared. After 70 hours of incubation the plates were inspected under an inverted microscope to assure growth of the controls and sterile conditions. Ten µl of resazurin solution (resazurin, 12.5 mg in 100 ml double-distilled water) was then added to each well and the plates incubated for another 2 hours. Then the plates were read with a Spectramax Gemini XS microplate fluorometer (Molecular Devices Cooperation, Sunnyvale, CA, USA) using an excitation wavelength of 536 nm and an emission wavelength of 588 nm. Data was analysed using the microplate reader software Softmax Pro (Molecular Devices, USA). Podophyllotoxin was used as a positive control in the assay.
T.b. rhodesiense STIB900 stock was isolated in 1982 from a human patient in Tanzania and after several mouse passages cloned and adapted to axenic culture conditions. Fifty microliters of Minimum Essential Medium (MEM) supplemented with 25 mM HEPES, 1 g/l additional glucose, 1% MEM non-essential amino acids (100×), 0.2 mM 2-mercaptoethanol, 1 mM Na-pyruvate and 15% heat inactivated horse serum was added to each well of a 96-well microtiter plate. Serial drug dilutions of eleven 3-fold dilution steps covering a range from 100 to 0.002 µg/ml were prepared. Four thousand bloodstream form cells of T.b. rhodesiense STIB 900 in 50 µl were added to each well and the plate incubated at 37°C under a 5% CO2 atmosphere for 70 hours. Ten microlitres of resazurin solution (resazurin, 12.5 mg in 100 ml double-distilled water) was then added to each well and incubation continued for a further 2–4 hours. Plates were then read with a Spectramax Gemini XS microplate fluorometer (Molecular Devices, USA) using an excitation wavelength of 536 nm and an emission wavelength of 588 nm. Data was analysed using the microplate reader software Softmax Pro (Molecular Devices, USA). The drug melarsoprol was a positive control against T.b. rhodesiense.

[2] = system: T. cruzi Tulahuen strain C2C4; test: T. cruzi Tulahuen strain C2C4 β-galactosidase assay; SI versus L6 cells; type: cell-based, Trypanosoma cruzi; settings: for IC50: in L6 host cells, 96 h, read-out: Compound activity T.C (IC50); for Selectivity Index T.C: relative to L6 cells
Protocol: as §1
Rat skeletal myoblasts (L6 cells) were seeded in 96-well microtitre plates at 2000 cells/well in 100 µl RPMI 1640 medium with 10% FCS and 2 mM l-glutamine. After 24 hours the medium was removed and replaced by 100 µl per well containing 5000 trypomastigote forms of T. cruzi Tulahuen strain C2C4 containing the β-galactosidase (Lac Z) gene. After 48 hours the medium was removed from the wells and replaced by 100 µl fresh medium with or without a serial drug dilution of eleven 3-fold dilution steps covering a range from 100 to 0.002 µg/ml. After 96 hours of incubation the plates were inspected under an inverted microscope to assure growth of the controls and sterility. Then 50 µl of the substrate, containing chlorophenol red-β-D-galactopyranoside (CPRG) and Nonidet, was added to all wells. A colour reaction developed within 2–6 hours that could be read photometrically at 540 nm. Data were transferred into the graphic programme Softmax Pro (Molecular Devices, USA), which calculated IC50 values. The drug benznidazole was used as a positive standard in this assay.

[3] = system: L. donovani strain MHOM/ET/67/L82 axenic amastigotes; test: L. donovani axenic amastigote fluorescence assay; SI versus L6 cells; type: cell-based, Leishmania donovani; settings: for IC50: axenic amastigotes, 70 h, read-out: Compound activity L.D (IC50); for Selectivity Index L.D: relative to L6 cells
Protocol: as §1
Amastigotes of L. donovani strain MHOM/ET/67/L82 were grown in axenic culture at 37°C in SM medium at pH 5.4 supplemented with 10% heat-inactivated FCS under an atmosphere of 5% CO2 in air. One hundred µl of culture medium containing 10^5 amastigotes from axenic culture with or without a serial drug dilution were seeded in 96-well microtitre plates. Serial drug dilutions of eleven 3-fold dilution steps covering a range from 100 to 0.002 µg/ml were prepared. After 70 hours of incubation the plates were inspected under an inverted microscope to assure growth of the controls and sterile conditions. Ten µl of resazurin solution (12.5 mg resazurin dissolved in 100 ml distilled water) were then added to each well and the plates incubated for another 2 hours. The plates were then read with a Spectramax Gemini XS microplate fluorometer (Molecular Devices, USA) using an excitation wavelength of 536 nm and an emission wavelength of 588 nm. Data was analysed using the software Softmax Pro (Molecular Devices, USA). Decrease of fluorescence ( = inhibition) was expressed as percentage of the fluorescence of control cultures and plotted against the drug concentrations. From the sigmoidal inhibition curves the IC50 values were calculated. Miltefosine served as a known drug control in this assay.

[4] = system: T.b. brucei; test: Determination of the cidal action of compounds (MIC and parasite counts); type: cell-based, Trypanosoma brucei brucei; settings: for MIC: Trypanosoma brucei, minimum concentration with plateau of activity (>95%) in Alamar Blue concentration response curve, read-out: minimum inhibitory concentration (MIC); for action cidal or static at the MIC: parasites cleared by 72 hours at MIC; for incubation time at the MIC for complete clearance of T.b. brucei parasites: cell counts at 24, 48 and 72 hours (29 hours from Presto Blue)
Description: The MIC was extrapolated as the minimum concentration at which there was a plateau of activity in the assay (>95% activity).

[5] = system: T.b. brucei; test: Time to kill assay (Presto Blue); type: cell-based, Trypanosoma brucei brucei; settings: for IC50: Trypanosoma brucei
Protocol: The starting dose was 40 µM, and the IC50 values were determined from a 16 point dose-response curve. The assay conditions were the same as previously described for the Alamar Blue assay, except that 10 µL of a final 10% concentration of Presto Blue in HMI-9 medium was added as the indicator of viable cells, at various time points. At the first time point, following 20 hours of incubation with compounds, Presto Blue was added to the wells and incubation at 37°C continued. Plates were read every hour and returned to continue incubation at 37°C. This was performed to determine at which time point there was a reproducible signal (Z' of >0.5), using puromycin as a […].

[6] = Trypanosoma cruzi, TULAHUEN, L6, 96 h
[7] = 29 hours after addition of compound, 2 experiments, read-out: Activity (IC50 value) 29 hours
[8] = 48 hours after addition of compound, read-out: Activity (IC50 value) 48 hours
[9] = read-out: Activity (IC50 value) 72 hours, 72 hours after addition of compound

Row | SMILES | IC50 [1] | IC50 ([1]; Trypanosoma brucei, L6, 70 h) [µM] | Selectivity Index T.R [1] | IC50 [2, 6] [µM] | IC50 [2] [µM] | Selectivity Index T.C [2] | IC50 ([3]; Leishmania donovani, L6, 70 h) [µM] | Selectivity Index L.D [3] | MIC [4] [µM] | action cidal or static at the MIC [4] | IC50 [5, 7] [µM] | IC50 [5, 8] [µM] | IC50 [5, 9] [µM] | exposure time at which stable/maximum IC50 value was reached [5] [h] | IC50 [3] [µM] | population remaining at the MIC, 24 hours ([4]; 24 hours) [%] | population remaining at the MIC, 48 hours ([4]; 48 hours) [%] | incubation time at the MIC for complete clearance of T.b. brucei parasites [4] [h]
1 | CC(C)(C)C(=O)NCCc1csc(-c2cccc(F)c2)n1 [Compound 1] | 1.47 ± 0.39 µM | 1.5 | 42 and 42.3 | 2.3 | 2.32 ± 0.0601 | 26.8 | 46.1 ± 22.4 | 1.35 | 3.97 (≈ 1.22 µg/mL) | cidal | 0.898 ± 0.332 | 0.691 ± 0.0664 | 1.03 ± 0.0184 |  |  |  |  | 
2 | O=C(NCCc1n[nH]c(-c2ccc(F)cc2)n1)c1cccc(F)c1 [Compound 2] | 6.77 ± 0.545 µM | 6.8 |  | 19.3 ± 0.0905 |  | 6.20 | 47.3 ± 0.324 | 2.53 | 19.8 (≈ 6.5 µg/mL) | cidal | 4.84 ± 0.449 | 3.83 ± 0.873 | 0.5 ± 0.0431 |  |  |  |  | 
3 | CCOc1ccc(OCc2ccc(C(=O)N3CCCC(C)C3)cc2)cc1 (stereo not shown) [Compound 3] | 0.854 ± 0.332 µM | 0.85 | 60 and 58.5 | 19.1 ± 5.32 |  | 2.56 | 16.1 ± 1.7 | 3.09 |  |  |  |  |  |  |  |  |  | 
4 | Cc1cc(O)nc(-n2nc(C)cc2NC(=O)C2CCCC2)n1 [Compound 4] | 4.85 ± 2.08 µM | 4.8 | 0.19 and 0.186 | 15.4 ± 4.29 |  | 0.0588 | 0.488 ± 0.154 | 1.84 |  |  |  |  |  |  |  |  |  | 
5 | CCS(=O)(=O)N1CCCc2ccc(NS(=O)(=O)c3ccccc3F)cc21 [Compound 5] | 14 µM and 14.4 µM | < 10 |  | 14.8 ± 0.151 |  | 1.47 | 6.6 ± 1.56 | 3.29 |  |  |  |  |  |  |  |  |  | 
6 | CCC(C)NC(=O)c1nc(-c2ccccc2)cnc1N (stereo not shown) [Compound 6] | 0.967 ± 0.45 µM | 0.97 | 18 and 18.4 | 19.1 ± 5.32 |  | 0.933 | 34 ± 5.6 | 0.525 | 9.92 (≈ 2.68 µg/mL) | cidal | 3.09 ± 1.38 | 0.177 ± 0.011 | 0.111 ± 0.0502 | 48 |  |  |  | 
7 | O=C(Nc1ccc(Cl)c(-c2nc3ncccc3o2)c1)c1ccco1 [Compound 7] | 0.586 ± 0.073 µM | 0.59 |  | 0.23 ± 0.0496 |  |  | 1.8 |  | 0.99 (≈ 0.336 µg/mL) | cidal | 0.178 ± 0.007 | 0.142 ± 0.0387 | 0.22 ± 0.0176 |  | 1.82 ± 0.277 | 0.41 | 0.06 | 
8 | CCc1ccccc1N=C(NCCN1CCOCC1)NC(=O)c1ccccc1 [Compound 8] | 0.875 ± 0.065 µM | 0.88 | 150 | 82 | 82.1 ± 1.69 | 1.61 | > 263 |  |  |  |  |  |  |  |  |  |  | 
9 | N=C(N)c1ccc(OCCCCCOc2ccc(C(=N)N)cc2)cc1 [Pentamidine, pentamidine, reference compound] |  |  |  |  |  |  |  |  | 0.04 (≈ 0.0136 µg/mL) |  | 0.00913 ± 0.00276 | 0.00341 ± 0.000661 | 0.00466 ± 0.000936 | 48 |  |  |  | 72
10 | COc1ccc(C[C@H](N)C(=O)N[C@H]2[C@@H](O)[C@H](n3cnc4c(N(C)C)ncnc43)O[C@@H]2CO)cc1 [Puromycin, puromycin, reference compound] |  |  |  |  |  |  |  |  | 1.15 (≈ 0.542 µg/mL) |  | 0.152 ± 0.0654 | 0.0581 ± 0.0101 | 0.0686 ± 0.000283 | 48 |  |  |  | 24
